In publication doi:10.1101/2022.06.02.494630v1 (biorxiv, 2022):

Tests used:
PfPHB2 = PfPHB2 (Plasmodium falciparum, UniProt Q8IJP8); experiment: biochemical
PfPHB1 = PfPHB1 (Plasmodium falciparum, UniProt Q8IBC3); experiment: biochemical
Sequence of PfPHB1 (Q8IBC3 1-272): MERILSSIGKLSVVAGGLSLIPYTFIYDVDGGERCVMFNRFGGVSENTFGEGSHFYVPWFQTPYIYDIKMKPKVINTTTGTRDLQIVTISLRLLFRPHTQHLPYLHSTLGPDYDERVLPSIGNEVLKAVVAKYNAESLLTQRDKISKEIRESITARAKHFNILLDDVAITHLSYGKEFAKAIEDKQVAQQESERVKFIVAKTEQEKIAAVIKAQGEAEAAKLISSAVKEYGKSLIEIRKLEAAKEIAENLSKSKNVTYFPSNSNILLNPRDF

Sequence of PfPHB2 (Q8IJP8 1-304): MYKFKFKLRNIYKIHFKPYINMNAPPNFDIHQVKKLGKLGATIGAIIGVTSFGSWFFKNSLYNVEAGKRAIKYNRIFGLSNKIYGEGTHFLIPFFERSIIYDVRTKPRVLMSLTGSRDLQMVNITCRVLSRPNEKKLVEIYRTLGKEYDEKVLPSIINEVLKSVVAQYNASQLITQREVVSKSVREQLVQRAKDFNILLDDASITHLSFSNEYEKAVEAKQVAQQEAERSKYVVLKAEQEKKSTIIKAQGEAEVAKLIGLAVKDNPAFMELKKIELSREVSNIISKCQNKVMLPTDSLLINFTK

SMILES: COc1ccc([C@@]23Oc4cc(OC)cc(OC)c4[C@]2(O)[C@H](O)[C@H](C(=O)N(C)C)[C@H]3c2ccccc2)cc1 [Roc-A]
- Kd (PfPHB2): 683 ± 21 nM
- Kd (PfPHB1): 1370 ± 600 nM
